Measurements from US9587471B2, “Controlling bioavailability of nutrient additions in subsurface formations” (E I DU PONT DE NEMOURS AND COMPANY, priority 2008, dated 2017).
Where a name gives a salt, the structure may show the parent alone.

How the values were obtained:
[1] = system: Pseudomonas stutzeri strain LH4:15 (ATCC PTA-8823); assay: Aerobic growth response (turbidity) to varying concentrations of industrial preservatives; format: cell-based; settings: for concentration that must be reached before inhibition of microbial growth ends: stated 'as illustrated in Example 2';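 for growth (turbidity): single plus means slight turbidity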
Procedure: (§1) Typically cells were grown at a temperature in the range of about 25° C. to about 40° C. in an appropriate medium.
Pseudomonas stutzeri strain LH4:15 (ATCC PTA-8823) was grown as outlined in Example 1. Various preservatives commonly used in the food, cosmetic, and water treatment industries were tested for their inhibitory effect at various concentrations (Table 2). Growth was monitored visually and positive growth was indicated by moderate to heavy turbidity.

[2] = system: Pseudomonas stutzeri strain LH4:15 (ATCC PTA-8823); assay: Anaerobic growth and survival: biocidal versus biostatic inhibition; format: cell-based; settings: for change in Log cell number: day 0 vs day 7, anaerobic; for Final anaerobic vial OD: starting OD600 = 0.05
Procedure: In this invention, the anaerobic growth and survival was tested in 20 ml crimp-capped anaerobic vials, using a complete nutrient medium of the following composition: Na2HPO4.7H2O, 1.4 g/L, KH2PO4, 0.69 g/L, NH4Cl, 0.5 g/L, MgSO4.7H2O, 0.1/L g, SL-10 trace metals, 10 ml, NaCl, 7.5 g/L, NaHCO3, 7.2 g/L, sodium nitrate, 12 g/L, Na lactate, 7 g/L, yeast extract, 10 mg/L, pH 7.3-7.8.
The anaerobic growth and survival was tested as outlined above. […] Vials were inoculated using an overnight aerobic culture of Pseudomonas stutzeri strain LH4:15 (ATCC PTA-8823) in Luria Bertani medium (LB, Mediatech Inc., Herndon, Va.,) at a final OD600 of 0.05. Within 2 hours of inoculation, serial dilutions from each treatment vial were made into aerobic LB medium to determine the cell numbers at Day 0. After approximately 24 hours cell numbers were estimated by noting the highest positive dilution based on the presence or absence of turbidity in dilutions of 10^−1 to 10^−11 in the serial dilution plates. Cell numbers on Day 0 and Day 7 were measured to obtain a survival estimate during inhibitor exposure.

[3] = system: Pseudomonas stutzeri strain LH4:15, ATCC PTA-8823; assay: Aerobic growth response (turbidity) to varying concentrations of potential microbial nutrients; format: cell-based; note: key: − = no turbidity; + = slight turbidity; ++ = moderate to heavy turbidity
Procedure: as §1
Additional potential microbial nutrients were added at various concentrations as outlined in Table 1. Growth was monitored visually with positive growth indicated by moderate to heavy turbidity.

[4] = Decline (hydrolysis) of ethyl formate in injection water; format: physicochemical; settings: in about four days, anaerobic, approximately 25° C., 0.2% added
Procedure: The growth delay allows deeper penetration into the oil well formation and more widespread MEOR activation.
(§2) Injection water was amended with sodium nitrate as electron acceptor plus a growth substrates. In addition 0.2% ethyl formate was added to the inhibited treatment. The injection water was incubated anaerobically at approximately 25° C. under an atmosphere of 80% nitrogen and 20% carbon dioxide, reflecting typical growth conditions in the North Slope oil well formations. Growth of the native populations, nitrate concentrations and ethyl formate concentrations were monitored over two weeks.

[5] = system: native anaerobic population in the injection water from the North Slope of Alaska; assay: Growth and nitrate+nitrite consumption of native populations in injection water; format: cell-based
Procedure: as §2

[6] = Partition coefficient in an oil/water system; format: physicochemical
Procedure: In this Example a contribution to inhibitor dissipation made by adsorption of the inhibitor into the oil phase may be observed. For example, nitrate as a nitrogen source and electron acceptor and glucose as a growth substrate, each at 25 g/L concentration, may be added in combination to the injection water stream. In addition, benzalkonium chloride may be added to the inhibited nutrient composition. The composition may be pumped into the oil well formation for 5 hours. The industrial biocide inhibits growth of microbial populations in the oil well formation independent of the added nutrient concentrations. As illustrated in Example 2 until the benzalkonium chloride reaches a concentration of <0.1 g/L, microbial growth is inhibited. Using physical parameters common in oil well formations found in unconsolidated sandstone regions of the North Slope, dispersion modeling determines that it will take approximately fourteen days for flow dispersion to dilute benzalkonium chloride to approximately <0.1 g/L. In addition, it may be empirically determined, through laboratory experimentation, that the partition coefficient for benzalkonium chloride in an oil/water system is approximately 10. Therefore, rather than adding benzalkonium chloride at 2% concentration based on dispersion modeling, it is added at a 10% initial concentration to counter act losses due to adsorption. […]

COC(=O)c1ccc(O)cc1 [Methylparaben]
growth (turbidity) ([1]; 0.01 g/L): ++
growth (turbidity) ([1]; 0.05 g/L): ++
growth (turbidity) ([1]; 0.1 g/L): ++
growth (turbidity) ([1]; 0.5 g/L): +
growth (turbidity) ([1]; 1 g/L): −
growth (turbidity) ([1]; 2.5 g/L): −
change in Log cell number ([2]; 0.5 g/L): 0
Final anaerobic vial OD ([2]; 0.5 g/L): 0.09
change in Log cell number ([2]; 0.6 g/L): 0
Final anaerobic vial OD ([2]; 0.6 g/L): 0.05
change in Log cell number ([2]; 0.8 g/L): 1
Final anaerobic vial OD ([2]; 0.8 g/L): 0.05
change in Log cell number ([2]; 1 g/L): −1
Final anaerobic vial OD ([2]; 1 g/L): 0.04
change in Log cell number ([2]; 2.5 g/L): −2
Final anaerobic vial OD ([2]; 2.5 g/L): 0.01
effectiveness of the inhibitor in words ([2]; judged by OD600 and cell killing, Table 3): showed this desirable property at the lowest efficacious concentrations

CN(C)C(=S)[S-].[Na+] [sodium dithiodimethyl carbamate]
growth (turbidity) ([1]; 0.1 g/L): ++
growth (turbidity) ([1]; 0.2 g/L): ++
growth (turbidity) ([1]; 0.3 g/L): −
growth (turbidity) ([1]; 0.5 g/L): −
growth (turbidity) ([1]; 0.8 g/L): −
growth (turbidity) ([1]; 1 g/L): −
concentration that must be reached before inhibition of microbial growth ends [1]: < 0.1 g/L

CCOC=O [Ethyl formate]
Growth response (turbidity) ([3]; 0.1 g/L, 24 hours of incubation): ++
Growth response (turbidity) ([3]; 0.1 g/L, 48 hours of incubation): ++
Growth response (turbidity) ([3]; 0.1 g/L, 120 hours of incubation): ++
Growth response (turbidity) ([3]; 0.5 g/L, 24 hours of incubation): ++
Growth response (turbidity) ([3]; 0.5 g/L, 48 hours of incubation): ++
Growth response (turbidity) ([3]; 0.5 g/L, 120 hours of incubation): ++
Growth response (turbidity) ([3]; 1 g/L, 24 hours of incubation): ++
Growth response (turbidity) ([3]; 1 g/L, 48 hours of incubation): ++
Growth response (turbidity) ([3]; 1 g/L, 120 hours of incubation): ++
Growth response (turbidity) ([3]; 5 g/L, 24 hours of incubation): +
Growth response (turbidity) ([3]; 5 g/L, 48 hours of incubation): ++
Growth response (turbidity) ([3]; 5 g/L, 120 hours of incubation): ++
Growth response (turbidity) ([3]; 25 g/L, 24 hours of incubation): −
Growth response (turbidity) ([3]; 25 g/L, 48 hours of incubation): −
Growth response (turbidity) ([3]; 25 g/L, 120 hours of incubation): −
Growth response (turbidity) ([3]; 50 g/L, 24 hours of incubation): −
Growth response (turbidity) ([3]; 50 g/L, 48 hours of incubation): −
Growth response (turbidity) ([3]; 50 g/L, 120 hours of incubation): −
change in Log cell number ([2]; 5 g/L): −2
Final anaerobic vial OD ([2]; 5 g/L): 0.02
change in Log cell number ([2]; 10 g/L): −6
Final anaerobic vial OD ([2]; 10 g/L): 0.01
change in Log cell number ([2]; 25 g/L): −6
Final anaerobic vial OD ([2]; 25 g/L): 0.005
change in Log cell number ([2]; 50 g/L): Dead
Final anaerobic vial OD ([2]; 50 g/L): 0.05
change in Log cell number ([2]; 80 g/L): Dead
Final anaerobic vial OD ([2]; 80 g/L): 0.06
decline of ethyl formate concentration [4]: 10 fold
delay of maximum growth ([5]; 0.2% concentration): four
effect on the maximum population in words ([5]; 0.2% concentration): longer maintenance of the maximum population
mean nitrate+nitrite loss rate ([5]; 0.2% ethyl formate): 190 ppm/day
consumption of electron acceptors nitrate+nitrite slower in the inhibited treatment ([5]; 0.2% ethyl formate vs no added ethyl formate): 31%

OCCOc1ccccc1 [2-phenoxy-ethan-1-ol]
growth (turbidity) ([1]; 1 g/L): ++
growth (turbidity) ([1]; 2 g/L): ++
growth (turbidity) ([1]; 3 g/L): ++
growth (turbidity) ([1]; 4 g/L): −

Benzalkonium chloride
growth (turbidity) ([1]; 0.0001 g/L): ++
growth (turbidity) ([1]; 0.001 g/L): ++
growth (turbidity) ([1]; 0.005 g/L): ++
growth (turbidity) ([1]; 0.01 g/L): ++
growth (turbidity) ([1]; 0.1 g/L): −
growth (turbidity) ([1]; 0.5 g/L): −
growth (turbidity) ([1]; 1 g/L): −
concentration that must be reached before inhibition of microbial growth ends [1]: < 0.1 g/L
change in Log cell number ([2]; 0.01 g/L): 0
Final anaerobic vial OD ([2]; 0.01 g/L): 0.12
change in Log cell number ([2]; 0.04 g/L): 0
Final anaerobic vial OD ([2]; 0.04 g/L): 0.01
change in Log cell number ([2]; 0.08 g/L): −4
Final anaerobic vial OD ([2]; 0.08 g/L): 0.02
change in Log cell number ([2]; 0.1 g/L): Dead
Final anaerobic vial OD ([2]; 0.1 g/L): 0.02
change in Log cell number ([2]; 0.5 g/L): Dead
Final anaerobic vial OD ([2]; 0.5 g/L): 0.06
change in Log cell number ([2]; 1 g/L): Dead
Final anaerobic vial OD ([2]; 1 g/L): 0.32
concentration that killed the cells on Day 0 ([2]; anaerobic vials): ≥ 0.1 g/L
partition coefficient [6]: approximately 10

Oc1ccccc1 [phenol]
growth (turbidity) ([1]; 0.01 g/L): ++
growth (turbidity) ([1]; 0.05 g/L): ++
growth (turbidity) ([1]; 0.1 g/L): ++
growth (turbidity) ([1]; 0.5 g/L): ++
growth (turbidity) ([1]; 1 g/L): ++
growth (turbidity) ([1]; 10 g/L): −
growth (turbidity) ([1]; 50 g/L): −
